From patent US8551956B2, “Compositions containing peptides with non-natural amino acids and methods of use” (Avon Products, Inc., priority 2006, dated 2013)

Tested on: Fibronectin
Assay: Stimulation of fibronectin production in Normal Human Dermal Fibroblasts-Adult, competitive inhibition ELISA of conditioned medium
Type: cell-based
Conditions: in vitro, concentration not given
Procedure: Normal Human Dermal Fibroblasts-Adult (Cascade Biologics) were cultured in 12-well tissue culture treated plates and treated for 72 hours in the presence or absence of test actives. Following incubation, the conditioned medium from each treatment was collected in a 1.7 mL microcentrifuge tube and frozen at −80° C. for subsequent analysis. The assay was in the format of a competitive inhibition ELISA.
Human fibronectin was pre-coated on the wells except for one row, which served as a reference. Standards and samples were pre-incubated with polyclonal rabbit antibody to human fibronectin. The polyclonal antibody was bound to the fibronectin in the standard dilutions, and in the sample, if present. The mixture was then transferred to the human fibronectin-coated plate. Free rabbit anti-human fibronectin was bound to the fibronectin on the plate. Goat anti-rabbit IgG HRP-conjugate reacted with bound rabbit anti-fibronectin. When HRP substrate was added, a blue color developed. The reaction was stopped by the addition of an acid, changing the color to yellow. This color was quantitated using a microplate reader set at 450 nm. The intensity of the color was inversely proportional to the amount of fibronectin in the original sample.

NCCCC[C@H](N)C(=O)NCCCCC(=O)NCCCC[C@H](N)C(=O)O [KavaK]
Fibronectin production, more compared to untreated control fibroblasts: 28%
